Columns and labels:
[1] = Cell cytotoxicity assay (MTS), CC90 as reported in Table 1, cell line not stated; type: cell-based; conditions: human; cell line not given
Protocol: Cell cytotoxicity assays. Each compound (serially diluted from 100 μM) was added to Huh7 (2×10^3 cells/well), HepG2 (2×10^3 cells/well), BxPC3 (2×10^3 cells/well), or CEM (5×10^3 cells/well) cells and allowed to incubate for 8 days at 37° C. A medium only control was used to determine the minimum absorbance value […]. At the end of the growth period, MTS dye from the CellTiter 96 Aqueous One Solution Cell Proliferation Assay kit (Promega) was added to each well and the plate was incubated for an additional 2 hours. The absorbance at 490 nm was read with a Victor3 plate reader (Perkin Elmer) using the medium only control wells as blanks. The 90% inhibition value (CC90) was determined by comparing the absorbance in wells containing cells and test compound to untreated cell control wells.

[2] = test system: HCV Replicon 1b; assay: HCV inhibition assay, HCV replicon 1b (Clone A or ET-lunet cells; RT-PCR or luciferase reporter); type: cell-based; conditions: Hepatitis C virus, 96 h, HCV replicon 1b; 4 days incubation; read-out: Replicon 1b potency EC90
Protocol: HCV inhibition assay. Clone A or ET-lunet cells were seeded at a density of 1500 or 3000 cells per well in a 96-well plate, respectively. Test compounds serially diluted in culture medium without G418 were added to cells so that the final DMSO concentration was 0.5%. Plates were incubated at 37° C. in a 5% CO2 atmosphere for 4 days. Inhibition of HCV RNA replication was determined by real time PCR (RT-PCR) or by measuring the levels of luminescence expressed via the luciferase reporter gene encoded within the ET replicon. Briefly, for the RT-PCR assay, total RNA was extracted using the RNeasy-96 kit as recommended by the manufacturer (Qiagen, Valencia, Calif.), reversed transcribed into cDNA, and amplified using primer and probe mix for HCV 5′-NTR RNA and human ribosomal RNA (rRNA) in a one-step RT-PCR reaction as described previously (50). A relative quantification method was used to determine the extent of inhibition. The threshold cycle (Ct) of rRNA was subtracted from the Ct of HCV RNA (ΔCt). The average ΔCt of the DMSO cell controls was then subtracted from the ΔCt of the compound treated sample (ΔΔCt). Percent inhibition was determined by using the following equation: %=(1−(2^−ΔΔC^t))×100. For the luciferase-based replicon assay, luminescence was measured by using a Victor3 plate reader (Perkin-Elmer, Boston, Mass.) following the addition of Bright-Glo reagent as recommended by the manufacturer (Promega, Madison, Wis.). Percent inhibition of HCV replication was determined by comparing the change in luminescence of the drug treated wells versus the DMSO cell controls. EC50 and EC90 values, the concentrations at which 50% and 90% inhibition were achieved, were determined using the GraphPad Prism software (San Diego, Calif.).

| Structure (SMILES) | CC90 at 8 days [1] | EC90 [2] |
| --- | --- | --- |
| CC(C)C[C@H]1C(=O)N[C@@H](C2CCCC2)CN1C(=O)c1cc(-c2ccc(F)cc2)on1 [Compound 163] | > 10000 nM | 90 nM |
| CCC[C@H]1CN(C(=O)c2cc(-c3ccc(F)cc3F)on2)[C@@H](CC(C)C)C(=O)N1 [Compound 165] | > 10000 nM | 340 nM |
| CC(C)C[C@H]1C(=O)N[C@@H](CC2CC2)CN1C(=O)c1cc(-c2ccc(Cl)cc2)on1 [Compound 166] | > 10000 nM | 360 nM |
| CC(C)C[C@H]1C(=O)N[C@@H](CC2CC2)CN1C(=O)c1cc(-c2ccc(F)cc2)on1 [Compound 167] | > 10000 nM | 450 nM |
| CC(C)C[C@H]1C(=O)N[C@@H](CC2CC2)CN1C(=O)c1cc(-c2cccs2)on1 [Compound 168] | > 10000 nM | 900 nM |
| CCC[C@H]1CN(C(=O)c2cc(-c3cccs3)on2)[C@@H](CC(C)C)C(=O)N1 [Compound 169] | > 10000 nM | 150 nM |
| CCC[C@H]1CN(C(=O)c2cc(-c3ccc(Cl)cc3)on2)[C@@H](CC(C)C)C(=O)N1 [Compound 170] | > 10000 nM | 50 nM |
| CC(C)C[C@H]1C(=O)N[C@@H](C2CCCCC2)CN1C(=O)c1cc(-c2ccc(Cl)cc2)on1 [Compound 171] | > 10000 nM | 150 nM |
| CC(C)C[C@H]1C(=O)N[C@@H](C2CCCCC2)CN1C(=O)c1cc(-c2cccs2)on1 [Compound 172] | > 10000 nM | 410 nM |
| CC(C)C[C@H]1C(=O)N[C@@H](C2CCCC2)CN1C(=O)c1cc(-c2ccc(Cl)cc2)on1 [Compound 173] | > 10000 nM | 120 nM |
| CC(C)C[C@H]1C(=O)N[C@@H](C2CCCC2)CN1C(=O)c1cc(-c2cccs2)on1 [Compound 174] | > 10000 nM | 250 nM |
| CC(C)C[C@H]1C(=O)N[C@@H](C(C)C)CN1C(=O)c1cc(-c2ccc(F)cc2)on1 [Compound 175] | > 10000 nM | 170 nM |
| CC(C)C[C@H]1CN(C(=O)c2cc(-c3ccc(S(C)(=O)=O)cc3)on2)[C@@H](CC(C)C)C(=O)N1 [Compound 176] | > 10000 nM | > 20000 nM |
| CC(C)C[C@H]1C(=O)N[C@@H](c2ccccc2)CN1C(=O)c1cc(-c2ccc(F)cc2)on1 [Compound 178] | > 10000 nM | 50 nM |
| CC(C)C[C@H]1CN(C(=O)c2cc(-c3ccc(OC(F)(F)F)cc3)on2)[C@@H](CC(C)C)C(=O)N1 [Compound 179] | > 10000 nM | 14900 nM |
| CC(C)C[C@H]1C(=O)N[C@@H](C2CC2)CN1C(=O)c1cc(-c2ccc(F)cc2)on1 [Compound 180] | > 10000 nM | 600 nM |
| CC(C)C[C@H]1C(=O)N[C@@H](C(C)C)CN1C(=O)c1cc(-c2ccc(Cl)cc2)on1 [Compound 181] | > 10000 nM | 230 nM |
| CSC[C@H]1CN(C(=O)c2cc(-c3ccc(Cl)cc3)on2)[C@@H](CC(C)C)C(=O)N1 [Compound 182] | > 10000 nM | 550 nM |
| CC(C)C[C@H]1C(=O)N[C@@H](c2ccccc2)CN1C(=O)c1cc(-c2ccc(Cl)cc2)on1 [Compound 183] | > 10000 nM | 60 nM |
| CCC[C@H]1CN(C(=O)c2cc(-c3ccc(F)c(F)c3)on2)[C@@H](CC(C)C)C(=O)N1 [Compound 184] | > 10000 nM | 140 nM |
| CC(C)C[C@H]1C(=O)N[C@@H](C2CCCCC2)CN1C(=O)c1cc(-c2ccc(F)c(F)c2)on1 [Compound 185] | > 10000 nM | 610 nM |
| CC(C)C[C@H]1C(=O)N[C@@H](C2CCCC2)CN1C(=O)c1cc(-c2ccc(F)c(F)c2)on1 [Compound 186] | > 10000 nM | 260 nM |

| Structure (SMILES) | CC90 at 8 days [1] | EC90 [2] |
| --- | --- | --- |
| CC(C)C[C@H]1C(=O)N[C@@H](C(C)C)CN1C(=O)c1cc(-c2ccc(F)c(F)c2)on1 [Compound 187] | > 10000 nM | 620 nM |
| CC(C)C[C@H]1C(=O)N[C@@H](c2ccccc2)CN1C(=O)c1cc(-c2ccc(F)c(F)c2)on1 [Compound 188] | > 10000 nM | 180 nM |
| CCC[C@H]1CN(C(=O)c2cc(-c3ccc(F)cc3)no2)[C@@H](CC(C)C)C(=O)N1 [Compound 189] | > 10000 nM | 110 nM |
| CC(C)C[C@H]1CN(C(=O)c2cc(-c3ccc(Cl)cc3)no2)[C@@H](CC(C)C)C(=O)N1 [Compound 190] | > 10000 nM | 320 nM |
| CC(C)C[C@H]1C(=O)N[C@@H](CC2CC2)CN1C(=O)c1cc(-c2ccc(F)cc2)no1 [Compound 191] | > 10000 nM | 120 nM |
| CC(C)C[C@H]1C(=O)N[C@@H](C2CCCCC2)CN1C(=O)c1cc(-c2ccc(F)cc2)no1 [Compound 193] | > 10000 nM | 50 nM |
| CC(C)C[C@H]1C(=O)N[C@@H](C2CCCC2)CN1C(=O)c1cc(-c2ccc(F)cc2)no1 [Compound 194] | > 10000 nM | 40 nM |
| CC(C)C[C@H]1CN(Cc2cc(-c3ccccc3)on2)[C@@H](CC(C)C)C(=O)N1 [Compound 195] | > 10000 nM | 750 nM |
| CC(C)C[C@H]1CN(Cc2cc(-c3ccc(F)cc3)on2)[C@@H](CC(C)C)C(=O)N1 [Compound 196] | > 10000 nM | 80 nM |
| CC(C)C[C@H]1CN(Cc2cc(-c3ccc(Cl)cc3)on2)[C@@H](CC(C)C)C(=O)N1 [Compound 197] | > 10000 nM | 240 nM |
| CC(C)C[C@H]1CN(Cc2cc(-c3ccc(Br)cc3)on2)[C@@H](CC(C)C)C(=O)N1 [Compound 198] | > 10000 nM | 550 nM |
| Cc1ccc(-c2cc(CN3C[C@H](CC(C)C)NC(=O)[C@@H]3CC(C)C)no2)cc1 [Compound 199] | > 10000 nM | 2150 nM |
| COc1ccc(-c2cc(CN3C[C@H](CC(C)C)NC(=O)[C@@H]3CC(C)C)no2)cc1 [Compound 200, (3S,6S)-3,6-Diisobutyl-4-((5-(4-methoxyphenyl)isoxazol-3-yl)methyl)piperazin-2-one] | > 10000 nM | 5790 nM |
| CC(C)C[C@H]1CN(Cc2cc(-c3ccco3)on2)[C@@H](CC(C)C)C(=O)N1 [Compound 201, (3S,6S)-4-((5-(Furan-2-yl)isoxazol-3-yl)methyl)-3,6-diisobutylpiperazin-2-one] | > 10000 nM | 1820 nM |
| CC(C)C[C@H]1CN(Cc2cc(-c3cccs3)on2)[C@@H](CC(C)C)C(=O)N1 [Compound 202, (3S,6S)-3,6-Diisobutyl-4-((5-(thiophen-2-yl)isoxazol-3-yl)methyl)piperazin-2-one] | > 10000 nM | 880 nM |
| CC(C)C[C@H]1C(=O)N[C@@H](C(C)(C)C)CN1Cc1cc(-c2ccc(F)cc2)on1 [Compound 205, (3S,6S)-6-(tert-butyl)-4-((5-(4-fluorophenyl)isoxazol-3-yl)methyl)-3-isobutylpiperazin-2-one] | > 10000 nM | 8900 nM |
| CCC[C@H]1CN(Cc2cc(-c3ccc(F)cc3)on2)[C@@H](CC(C)C)C(=O)N1 [Compound 206, (3S,6S)-4-((5-(4-fluorophenyl)isoxazol-3-yl)methyl)-3-isobutyl-6-propylpiperazin-2-one] | > 10000 nM | 210 nM |
| CC(C)C[C@H]1C(=O)N[C@@H](C2CCCCC2)CN1Cc1cc(-c2ccc(F)cc2)on1 [Compound 207, (3S,6S)-6-cyclohexyl-4-((5-(4-fluorophenyl)isoxazol-3-yl)methyl)-3-isobutylpiperazin-2-one] | > 10000 nM | 860 nM |
| CC(C)C[C@H]1C(=O)N[C@@H](C2CCCC2)CN1Cc1cc(-c2ccc(F)cc2)on1 [Compound 208, (3S,6S)-6-cyclopentyl-4-((5-(4-fluorophenyl)isoxazol-3-yl)methyl)-3-isobutylpiperazin-2-one] | > 10000 nM | 210 nM |
| CC(C)C[C@H]1C(=O)N[C@@H](CC2CC2)CN1Cc1cc(-c2ccc(Cl)cc2)on1 [Compound 209, (3S,6S)-4-((5-(4-chlorophenyl)isoxazol-3-yl)methyl)-6-(cyclopropylmethyl)-3-isobutylpiperazin-2-one] | > 10000 nM | 670 nM |
| CCC[C@H]1CN(Cc2cc(-c3ccc(Cl)cc3)on2)[C@@H](CC(C)C)C(=O)N1 [Compound 210, (3S,6S)-4-((5-(4-chlorophenyl)isoxazol-3-yl)methyl)-3-isobutyl-6-propylpiperazin-2-one] | > 10000 nM | 320 nM |

From patent publication US20120202794A1 (priority 2011, published 2012)
